Drawing on patent US5798350A, “Dopamine receptor ligands” (Allelix Biopharmaceuticals, Inc., priority 1996, dated 1998), this text covers inhibition for 4 compounds.

Structures are written as SMILES.

The assay concerns the target T1, human D4 receptors (Homo sapiens, UniProt P21917).
T1 construct: expressed in transfected cells
T1 sequence (P21917 1-419): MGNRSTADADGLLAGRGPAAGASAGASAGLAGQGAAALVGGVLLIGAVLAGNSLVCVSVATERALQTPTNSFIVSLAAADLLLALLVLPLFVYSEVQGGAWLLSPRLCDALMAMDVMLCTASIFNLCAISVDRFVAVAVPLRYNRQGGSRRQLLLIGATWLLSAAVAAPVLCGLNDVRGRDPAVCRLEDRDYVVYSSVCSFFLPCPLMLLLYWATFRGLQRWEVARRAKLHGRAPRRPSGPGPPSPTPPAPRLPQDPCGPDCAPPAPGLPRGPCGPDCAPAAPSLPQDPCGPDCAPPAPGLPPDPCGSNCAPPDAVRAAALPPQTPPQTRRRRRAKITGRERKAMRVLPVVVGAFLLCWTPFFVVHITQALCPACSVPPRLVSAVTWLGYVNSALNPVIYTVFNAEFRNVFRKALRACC
Briefly: Functional antagonist assay: reversal of dopamine inhibition of forskolin-stimulated adenyl cyclase (cAMP). It counts as cell-based. To be noted: dopamine and forskolin both 10 μM, read-out: % REVERSAL OF DOPAMINE EFFECT. The protocol:
The D4 receptor responds to dopamine and other agonists by reducing adenyl cyclase mediated production of cyclic AMP. Particular test compounds were assayed for their ability to reverse dopamine inhibition of adenyl cyclase by the following procedure. Forskolin was used to elevate the basal adenyl cyclase activity.
CHO Pro 5 cells stably expressing human D4 receptors were plated in 6 well plates in DMEM (Dulbecco's Modified Eagle Medium)/F12(Nutrient Mixture F12 (Ham)) media with 10% FCS (fetal calf serum) and G418 (Geneticen Disulfate), and incubated at 37° C. in a CO2 incubator. The cells were allowed to grow to about 70% confluence before use in the assay.
The culture media of each well was removed by aspiration, and the wells were washed once with serum free media (SFM) (DMEM/F12) media. Then 2 mL of fresh SFM+IBMX media (SFM with 0.5 mM IBMX (3-isobutyl-1-methylxanthine0.1% ascorbic acid and 10 μM pargyline) was added to each well and then incubated at 37° C. for 10 minutes in CO2 incubator. Following incubation, SFM+IBMX media was aspirated and fresh SFM+IBMX media was added to wells separately with one of a) forskolin (10 μM final conc.); b) dopamine and forskolin (both 10 μM final conc.); and c) test compound ([…]), and dopamine and forskolin (both 10 μM final conc.). Basal adenyl cyclase activity was determined from wells with only SFM+IBMX media added.
The cells were then incubated at 37° C. for 30 minutes in a CO2 incubator. Following incubation the media was aspirated from each well and then washed once with 2 mL of PBS (phosphate buffered saline). Each well was then treated with 1 mL cold 95% ethanol:5 mM EDTA (2:1) at 4° C. for 1 h. The cells from each well were then scraped and transferred into individual Eppendorf tubes. The tubes were centrifuged for 5 minutes at 4° C., and the supernatants were transferred to new Eppendorf tubes. The pellets were discarded and the supernatants dried using a SpeedVac. The extracts were then reconstituted in 600 μL of 0.1M sodium acetate buffer, pH 6.1, and stored at 4° C. until assayed for cAMP concentration. cAMP content measured in fmoles/well for each extract was determined by EIA (enzyme-immunoassay) using Amersham Biotrak cAMP EIA kit (Amersham RPN 225).
Total inhibition (IO) of forskolin-stimulated adenyl cyclase activity by dopamine was determined as the difference in concentration of cAMP in the forskolin-treated cells (Cf) and dopamine-forskolin treated cells (Cd).
Net inhibition (I) of forskolin-stimulated adenyl cyclase activity by dopamine in the presence of an antagonist was determined as the difference in concentration of cAMP in the forskolin-treated cells (Cf) and test compound, dopamine and forskolin treated cells (C).
The ability of a test compound to reverse the dopamine inhibition (% reversal, %R) was determined by the formula: […]

On to `Clc1ccc2c(c1)C=C(N1CCN(Cc3ccc4c(c3)OCO4)CC1)c1ccccc1S2` [2-chloro-10-(4-piperonyl-1-piperazinyl)dibenzo[b,f]thiepine], for which the inhibition at 1 µM stood at 47% and the inhibition at 10 µM worked out at 40%.
For `Clc1ccc2c(c1)N=C(N1CCN(Cc3ccc4c(c3)OCO4)CC1)c1ccccc1O2` [8-chloro-11-(4-piperonyl)-1-piperazinyl)dibenz[b,f][1,4]oxazepine], the inhibition at 1 µM was found to be 46% and the inhibition at 10 µM turned out to be 68%.
For `Clc1ccc2c(c1)Nc1ccccc1N=C2N1CCN(Cc2ccc3c(c2)OCO3)CC1` [3-chloro-11-(4-piperonyl-1-piperazinyl)-5H-dibenzo[b,e][1,4]diazepine], the inhibition at 1 µM was 19% and the inhibition at 10 µM turned out to be 50%.
Taken in the same sequence, the figures for `c1ccc2c(c1)N=C(N1CCN(Cc3ccc4c(c3)OCO4)CC1)c1ccccc1O2` [11-(4-piperonyl)-1-piperazinyl)-dibenz[b,f][1,4]oxazepine] were 40% and 50%.
